Measurements reported in US9943563B2, “Compositions and methods for treating vitiligo” (Stealth Peptides International, Inc., priority 2013, dated 2018).
“Also recorded” adds a separate entry of the source. Square brackets hold non-standard residues; d marks the D form. Ends that are not written are not given here.

Assays:
[1] = system: plasma membrane of several mammalian cell types; details: energy-independent manner; cited from earlier work
[2] = system: vitiligo mice; experiment: Progressive depigmentation in the pelage of the vitiligo mouse model; format: in vivo; details: 0.25 mg/kg/day for four weeks before plucking, 2 weeks after plucking dorsal hairs, vs untreated
Protocol: Vitiligo mice described in Lerner et al., Journal of Investigative Dermatology, 87: 299-304 (1986) are obtained. Vitiligo mice are subdivided into 2 groups. Group I mice are administered a daily dose of 0.25 mg/kg/day of D-Arg-2′,6′-Dmt-Lys-Phe-NH2 for four weeks before plucking dorsal hairs whereas Group II vitiligo mice are treated with drug vehicle before plucking. The regrowth of amelanotic hairs is monitored via light microscopy.

[3] = molecular target: mu-opioid receptor (Homo sapiens, UniProt P35372); details: stated in the description, no test described; cited from earlier work
[4] = system: adoptive transfer mouse model of vitiligo; experiment: Epidermal depigmentation in an adoptive transfer mouse model of vitiligo; format: in vivo; details: adoptive transfer vitiligo mice, 0.25 mg/kg/day for four weeks; tail, nose, footpad; vs untreated
Protocol: Vitiligo mice described in Harris et al., Journal of Investigative Dermatology, 132: 1869-1876 (2012) are obtained. This adoptive transfer mouse model of vitiligo recapitulates the human condition by inducing epidermal depigmentation while sparing the hair. These mice are subdivided into 2 groups. Group I mice are administered a daily dose of 0.25 mg/kg/day of D-Arg-2′,6′-Dmt-Lys-Phe-NH2 for four weeks whereas Group II vitiligo mice are treated with drug vehicle and serve as controls. The loss of pigmentation in epidermal tissues such as the tail, nose and footpad is monitored via light microscopy.

[5] = system: melanocytes from human subjects diagnosed with vitiligo (VHM); experiment: ATP production of melanocytes (fluorimetric determination); format: cell-based; details: 2 μM added each day for 3 days, vs untreated (0 μM)
Protocol: Melanocytes were isolated and cultured from two human patients diagnosed with vitiligo (VHM). Cultured melanocytes from each patient were divided into two groups, wherein each group was treated with D-Arg-2′,6′-Dmt-Lys-Phe-NH2 at 0 μM and 2 μM. D-Arg-2′,6′-Dmt-Lys-Phe-NH2 was added to the growth media each day for 3 days. After 3 days, the melanocytes were lysed and ATP levels were measures by fluorimetric determination. Each assay was performed in triplicate.

[6] = system: melanocytes from human subjects diagnosed with vitiligo (VHM); experiment: Mitochondrial membrane potential of melanocytes (JC-1 probe); format: cell-based; details: peptide at 1.5 μM and 2.0 μM added each day for 7 days, vs 0 μM and untreated NHM
Protocol: Cultured melanocytes from each patient were divided into three groups, wherein each group was treated with D-Arg-2′,6′-Dmt-Lys-Phe-NH2 at 0 μM, 1.5 μM, and 2 μM. D-Arg-2′,6′-Dmt-Lys-Phe-NH2 added to the growth media each day for 7 days. After 7 days, mitochondrial membrane potential (ΔΨm) of the melanocytes were assessed with a JC-1 probe (see, e.g., JC-1 Mitochondrial Membrane Potential Assay Kit, Cayman Chemical Co., Ann Arbor, Mich.).

[7] = system: autologous vitiligo skin explants; experiment: T-cell accumulation and cytotoxic activity in autologous vitiligo skin explants; format: in vivo, human; details: vitiligo patients, 0.25 mg/kg/day for twelve weeks, perilesional T-cells co-cultured with autologous skin explants 2 days
Protocol: Active vitiligo patients are subdivided into 2 groups. Group I subjects are administered a daily dose of 0.25 mg/kg/day of D-Arg-2′,6′-Dmt-Lys-Phe-NH2 for twelve weeks whereas Group II vitiligo subjects are treated with drug vehicle and serve as controls. Punch-biopsies are obtained flanking the depigmented macule from Group I and Group II vitiligo subjects. These biopsies are cultured to promote T-cell growth according to the procedures described in Van Den Boom et al., Journal of Investigative Dermatology, 129: 2220-2232 (2009). The ability of these perilesional T-cells to infiltrate and actively kill melanocytes within the skin tissue microenvironment is tested using skin explant assays. Autologous skin explants are generated according to the procedures described in Van Den Boom et al., Journal of Investigative Dermatology, 129: 2220-2232 (2009). Perilesional T-cells are co-cultured with normally pigmented autologous skin explants for 2 days. T-cells are allowed to infiltrate the skin explants and migrate toward the melanocytes located at the dermal-epidermal junction. Skin explant cryosections are analyzed for the presence of infiltrated T-cells, melanocytes, and apoptosis by immunohistochemistry or immunofluorescence as described in Van Den Boom et al., Journal of Investigative Dermatology, 129: 2220-2232 (2009).

Chain of mu-opioid receptor (P35372 whole entry, species assumed): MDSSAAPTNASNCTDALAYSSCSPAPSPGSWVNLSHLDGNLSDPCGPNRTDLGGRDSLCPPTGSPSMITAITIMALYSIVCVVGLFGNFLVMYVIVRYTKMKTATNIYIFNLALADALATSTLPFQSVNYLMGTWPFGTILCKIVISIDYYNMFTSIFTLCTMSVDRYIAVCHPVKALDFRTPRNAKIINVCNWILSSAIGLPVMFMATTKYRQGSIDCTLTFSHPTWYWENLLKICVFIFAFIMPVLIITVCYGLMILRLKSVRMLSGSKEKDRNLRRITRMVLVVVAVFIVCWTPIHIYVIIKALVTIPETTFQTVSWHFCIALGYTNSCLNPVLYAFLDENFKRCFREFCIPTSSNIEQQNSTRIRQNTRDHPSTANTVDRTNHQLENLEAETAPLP

Substance: 2′,6′-Dmt-D-Arg-Phe-Lys-NH2
- penetration of the plasma membrane [1]: readily penetrates the plasma membrane

Substance: D-Arg-2′,6′-Dmt-Lys-Phe-NH2
- rate of progressive depigmentation [2]: reduced rate of progressive depigmentation
- mu-opioid receptor agonist activity [3]: does not have mu-opioid receptor agonist activity
- severity of depigmentation in epidermal tissues [4]: reduced severity of depigmentation
- ATP production of VHM melanocytes [5]: elevated ATP production levels; also recorded: increased the ATP production
- mitochondrial membrane potential (ΔΨm) of VHM melanocytes [6]: returned the mitochondrial membrane potential of the VHM melanocytes to levels found in untreated NHM melanocytes; also recorded: increased the mitochondrial membrane potential
- mitochondrial membrane potential (ΔΨm) of VHM melanocytes ([6]; listed as D-Arg-2′6′-Dmt-Lys-Phe-NH2): nearly doubled
- melanocyte survival rates in skin explants [7]: greater than untreated vitiligo explants

Substance: F[dR]FK-NH2
- mu-opioid receptor agonist activity [3]: does not have mu-opioid receptor agonist activity

Substance: Tyr-D-Arg-Phe-Lys-NH2
- mu-opioid receptor agonist activity [3]: has mu-opioid receptor agonist activity
